From patent US20170066795A1, “SOLID PRODRUG FORMS OF 2'-CHLORO-2'-METHYL URIDINE FOR HCV” (IDENIX PHARMACEUTICALS LLC, priority 2014, published 2017)
In brackets after ≈: the same amount, converted by molar mass. Entries after “also recorded” stand apart in the source; their conditions may differ.

Legend:
Format in all cases: physicochemical
[1] = Static stability of amorphous Compound I (ambient conditions; 40° C./75% RH)
Method: Full characterization was carried out on a 100 mg scale test batch (lyophilised from 100% t-butanol).

[2] = Kinetic solubility of amorphous Compound I; settings: kinetic from dmso stock; stated in embodiment text only
[3] = Solubility screen with crystalline material (Form I)
Method: An extensive range of experiments were carried out using either Compound I crystalline Form I or amorphous Compound I as the input material. A set of 32 solvents with diverse properties (including 3 solvent:water mixtures 95:5 v:v) were selected. All solvents were used for the solubility screen but for the subsequent screens a selection of these solvents were used depending on the solubility.
Compound I Form I was weighed into 2 mL vials and treated with increasing amounts of solvent. Solvent was added in 10 or 20 volume portions until the solid dissolved or a maximum volume of 2 mL (80 volumes) had been reached. After each addition of solvent the samples were warmed to 50° C. […] After 3 days of maturation samples were equilibrated to room temperature and small amounts of each sample were filtered through glass frits under vacuum and were analyzed by XRPD. […]
Solutions were stirred at 50° C. for 1 hour then were cooled to 5° C. using a linear cooling rate of 0.1° C./min. […] Observations were made and any solids were analyzed by XRPD as above and solutions were cooled in the freezer for 3 days. Solids were then analyzed by XRPD and samples that remained solutions were left to evaporate slowly through loosened lids at ambient conditions. When solids were produced they were analyzed by XRPD.

Row | SMILES | Static Stability at 40° C./75% RH: time to deliquesce to an oil/gum ([1]; 40° C./75% RH) | Static Stability at 40° C./75% RH: solid form ([1]; 40° C./75% RH, 1, 15 and 44 days) | Static Stability at ambient conditions ([1]; solid form on storage, lyophilised batch) | solubility kinetic [2] | solubility in most primary alcohols [3]
1 | CC(C)OC(=O)[C@@H](C)N[P@@](=O)(OC[C@H]1O[C@@H](n2ccc(=O)[nH]c2=O)[C@](C)(Cl)[C@@H]1O)Oc1ccccc1 [Amorphous Compound I] | Deliquesces to an oil/gum in <1 hour, | remains amorphous after 1 day,; also recorded: after 15 days amorphous but hint of a peak at 6.5 °20; also recorded: after 44 days remains amorphous except for peak at 6.5 °20 | Remains amorphous after 22 days | ~2000 µg/mL (≈ 3.66 mM) | –
2 | CC(C)OC(=O)[C@@H](C)N[P@@](=O)(OC[C@H]1O[C@@H](n2ccc(=O)[nH]c2=O)[C@](C)(Cl)[C@@H]1O)Oc1ccccc1 [Compound I crystalline Form I] | – | – | – | – | highly soluble
